The target of this experiment is Beta-secretase 1 (Homo sapiens, UniProt P56817). Description: In Vitro BACE1 Activity Assay. Conditions: pH 4.5; 22 °C. The procedure: The assay was performed using a 96-well format on a HPLC equipped with four 96-well plate holders. Test compounds were preincubated with enzymes for 30min, followed by the addition of substrate. The solution was then incubated for an additional 30 min at room temperature. After the reaction was terminated, the solution was filtered, and the filtrate was subjected to HPLC analysis. The substrate and product were monitored by fluorescence detection (340nm excitation, 440 nm emission).

Drawing on BindingDB's records for doi:10.1021/jm049388p (Merck Research Laboratories, 2004), this text covers IC50 for one compound.

pIC50: −log10 of the molar value.

Beta-secretase 1, sequence (P56817 whole entry): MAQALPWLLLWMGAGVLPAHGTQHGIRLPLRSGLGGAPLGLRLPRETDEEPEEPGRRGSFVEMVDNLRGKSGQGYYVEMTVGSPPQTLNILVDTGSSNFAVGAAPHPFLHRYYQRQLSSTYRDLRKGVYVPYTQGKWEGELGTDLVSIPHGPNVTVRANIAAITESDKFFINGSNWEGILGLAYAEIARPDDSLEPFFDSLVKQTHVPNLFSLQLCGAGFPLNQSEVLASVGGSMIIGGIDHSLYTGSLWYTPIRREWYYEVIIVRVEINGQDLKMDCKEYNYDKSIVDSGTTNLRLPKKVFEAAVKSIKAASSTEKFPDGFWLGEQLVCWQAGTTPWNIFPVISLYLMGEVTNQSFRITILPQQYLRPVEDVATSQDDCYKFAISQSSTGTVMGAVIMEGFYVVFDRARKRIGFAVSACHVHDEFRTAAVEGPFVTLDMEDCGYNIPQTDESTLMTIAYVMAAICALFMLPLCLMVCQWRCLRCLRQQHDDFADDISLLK

For `C[C@H](NC(=O)c1cc(OCC(=O)NCCCCCN)cc(OS(=O)(=O)Cc2ccccc2)c1)c1ccccc1` [3-{[(5-aminopentyl)carbamoyl]methoxy}-5-{[(1S)-1-phenylethyl]carbamoyl}phenyl 1-phenylmethanesulfonate], the pIC50 is below 4.00.
